These results are taken from patent US11339130B1 (Blade Therapeutics, Inc., priority 2016, dated 2022).

One assay addresses T1, human calpain 9 (Homo sapiens, UniProt O14815).
T1 construct: human calpain 9, residues 27-347, was over expressed in E. coli BL21 (DE3); hexa-histidine (N); made in house; host or cells: E. coli BL21 (DE3)
T1 sequence (O14815 27-347): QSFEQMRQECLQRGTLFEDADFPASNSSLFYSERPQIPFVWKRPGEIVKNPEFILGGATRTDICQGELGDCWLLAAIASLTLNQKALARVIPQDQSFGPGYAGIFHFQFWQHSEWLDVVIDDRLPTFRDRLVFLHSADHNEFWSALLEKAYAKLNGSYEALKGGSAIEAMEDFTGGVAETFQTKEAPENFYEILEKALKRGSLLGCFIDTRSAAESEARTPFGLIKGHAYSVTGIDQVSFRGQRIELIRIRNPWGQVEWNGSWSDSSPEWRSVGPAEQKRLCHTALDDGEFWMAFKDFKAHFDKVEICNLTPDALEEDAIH
Kind of assay: Calpain binding: crystal structure interaction distances, human calpain 9. The conditions noted are these: for Interaction Distances P1-Gly95 / Interaction Distances P1-Gly189 / Interaction Distances P1-Lys188 / Interaction Distances P1-Ser242 / Interaction Distances P2-Ala255 / Interaction Distances P2-Gly190 / Interaction Distances P2-Gly253 / Interaction Distances P2-His254 / Interaction Distances P2-Phe233 / Interaction Distances P3-Gly189 / Interaction Distances P3-Gly190 / Interaction Distances P3-Ser191: non-polar interactions with human calpain 9; for Interaction Distances R^10-Gly253 / Interaction Distances R^11-Gly190 / Interaction Distances R^12-His254 / Interaction Distances R^13-Cys97 / Interaction Distances R^13-Gln91: polar interactions with human calpain 9. As for the experimental part: Calpain 9 Protein Preparation: N-terminally hexa-histidine-tagged human calpain 9, residues 27-347, was over expressed in E. coli BL21 (DE3) and purified via Ni-NTA and size-exclusion chromatography with yields >10 mg/liter of culture and >99% purity. The calpain 9 sequence is accession number 014815 at uniprot.org.
(§1) Calpain 9 Crystallization: A 10 mg/ml solution of rat calpain 1 or human calpain 9 (obtained as described above) was prepared in 50 mM tris (pH 8), 0.5 M NaCl, 1 mM EDTA, 1 mM CaCl2), and 1 mM beta-mercaptoethanol against MCSG1 screen condition C2 (Anatrace, Maumee, Ohio) containing 0.2 M LiSO4, 0.1 M bis-tris (pH 5.5), and 25% PEG 3350. The solution contained 2.5 mM of test compound supplemented with 20% ethylene glycol as a cryo-protectant. The bound protein was crystallized using vapor diffusion, sitting drop, at […]. The space group was P 41 21 2, with unit cell dimensions of 97.2 Å, 97.2 Å, 173.4 Å.
Calpain 9 Crystallography data collection and refinement: Data was collected at the APS synchrotron, beamline 21-ID-F at […]. Reflections were collect between 45.0-2.1 Å with completeness of 100%. Reflection data was analyzed using XDS and Xscale (Heidelberg, Germany). Structure was solved using molecular replacement and was refined with PHENIX (Berkeley, Calif.) to an R value of 0.168, Rfree=0.210.
(§2) Key interactions between test compound moieties (with reference to the variables of Formula II) and calpain 1 or calpain 9 residues were determined as set forth in Tables 4-7 below.

A further assay deals with T2, rat calpain 1 (Rattus norvegicus, UniProt P97571).
T2 construct: made in house
Kind of assay: Calpain binding: crystal structure interaction distances, rat calpain 1. The conditions noted are these: for Interaction Distances P1-Gly113 / Interaction Distances P1-Gly207 / Interaction Distances P1-Met260 / Interaction Distances P1-Ser206 / Interaction Distances P2-Ala273 / Interaction Distances P2-Gly208 / Interaction Distances P2-Gly271 / Interaction Distances P2-His272 / Interaction Distances P2-Ser251 / Interaction Distances P3-Gly207 / Interaction Distances P3-Gly208 / Interaction Distances P3-Ser209: non-polar interactions with rat calpain 1; for Interaction Distances R^10-Gly271 / Interaction Distances R^11-Gly208 / Interaction Distances R^12-His272 / Interaction Distances R^13-Cys115 / Interaction Distances R^13-Gln109: polar interactions with rat calpain 1. As for the experimental part:
as §1
Calpain 1 preparation, crystallization, and data collection: Suitable constructs for expression of rat calpain 1 had been previously established. Expression was performed according to previously established protocols. A purification protocol was established and homogeneous protein was produced in preparative amounts. The calpain 1 protein was purified comprising affinity and gel filtration chromatography steps. This procedure yielded homogenous protein with a purity greater 95% as judged from Coomassie stained SDS-PAGE. The purified protein was used in crystallization trials with test compounds employing both, a standard screen with approximately 1200 different conditions, as well as crystallization conditions identified using literature data. Conditions initially obtained were optimised using standard strategies, systematically varying parameters critically influencing crystallization, such as temperature, protein concentration, drop ratio, and others. These conditions were also refined by systematically varying pH or precipitant concentrations. Crystals were flashfrozen and measured at a temperature of 100 K. The X-ray diffraction data were collected from complex crystals ligands at a synchrotron source using cryogenic conditions. Data were processed using software programs XDS and XSCALE
as §2

T2 sequence (P97571 29-356 limits assumed): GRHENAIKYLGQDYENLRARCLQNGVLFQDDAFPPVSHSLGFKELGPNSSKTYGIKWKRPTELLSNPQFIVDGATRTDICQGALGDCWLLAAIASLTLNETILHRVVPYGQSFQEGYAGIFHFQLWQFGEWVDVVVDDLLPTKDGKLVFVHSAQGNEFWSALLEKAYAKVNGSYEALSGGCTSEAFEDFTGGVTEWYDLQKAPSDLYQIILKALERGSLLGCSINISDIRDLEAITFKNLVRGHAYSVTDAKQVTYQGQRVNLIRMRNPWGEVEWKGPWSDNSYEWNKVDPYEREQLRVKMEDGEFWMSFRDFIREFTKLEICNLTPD

Take `Cn1cc(C(=O)N[C@@H](Cc2ccccc2)C(=O)C(N)=O)c(-c2ccccc2)n1` [Compound 32, (S)—N-(4-amino-3,4-dioxo-1-phenylbutan-2-yl)-1-methyl-3-phenyl-1H-pyrazole-4-carboxamide]: at human calpain 9, the “Interaction Distances P1-Gly95” value is reported as 4.0 Å, the “Interaction Distances P1-Gly189” value is 3.5 Å, the “Interaction Distances P1-Lys188” value stood at 3.8 Å and the “Interaction Distances P1-Ser242” value is reported as 3.6 Å. Moreover, on human calpain 9, the “Interaction Distances P2-Ala255” value was found to be 4.3 Å, the “Interaction Distances P2-Gly190” value amounted to 3.3 Å, the “Interaction Distances P2-Gly253” value is 3.1 Å and the “Interaction Distances P2-His254” value is reported as 4.2 Å. At human calpain 9, the “Interaction Distances P2-Phe233” value is recorded as 3.3 Å, the “Interaction Distances P3-Gly189” value worked out at 3.7 Å, the “Interaction Distances P3-Gly190” value came to 3.5 Å and the “Interaction Distances P3-Ser191” value turned out to be 4.4 Å. Besides, at human calpain 9, the “Interaction Distances R^10-Gly253” value amounted to 3.2 Å, the “Interaction Distances R^11-Gly190” value is reported as 2.9 Å, the “Interaction Distances R^12-His254” value is reported as 2.7 Å and the “Interaction Distances R^13-Cys97” value was determined as 2.9 Å. For the same compound, the “Interaction Distances R^13-Gln91” value at human calpain 9 worked out at 2.8 Å.

For the compound `NC(=O)C(=O)[C@H](Cc1ccccc1)NC(=O)c1snnc1-c1ccccc1` [Compound 44, (S)—N-(4-amino-3,4-dioxo-1-phenylbutan-2-yl)-4-phenyl-1,2,3-thiadiazole-5-carboxamide], at human calpain 9, the “Interaction Distances P1-Gly95” value stood at 3.6 Å, the “Interaction Distances P1-Gly189” value was found to be 3.4 Å, the “Interaction Distances P1-Lys188” value was 3.7 Å and the “Interaction Distances P1-Ser242” value was determined as 3.7 Å. Further, at human calpain 9, the “Interaction Distances P2-Ala255” value was determined as 3.9 Å, the “Interaction Distances P2-Gly190” value is 3.0 Å, the “Interaction Distances P2-Gly253” value is recorded as 3.4 Å and the “Interaction Distances P2-His254” value is on record as 4.2 Å. At human calpain 9, the “Interaction Distances P2-Phe233” value came out at 4.4 Å, the “Interaction Distances P3-Gly189” value was 4.0 Å, the “Interaction Distances P3-Gly190” value is 3.3 Å and the “Interaction Distances P3-Ser191” value was determined as 4.2 Å. In addition, on human calpain 9, the “Interaction Distances R^10-Gly253” value is on record as 2.9 Å, the “Interaction Distances R^11-Gly190” value is 3.2 Å, the “Interaction Distances R^12-His254” value amounted to 2.5 Å and the “Interaction Distances R^13-Cys97” value is listed as 3.0 Å. For the same compound, the “Interaction Distances R^13-Gln91” value at human calpain 9 is 2.8 Å.

`NC(=O)C(=O)[C@H](Cc1ccccc1)NC(=O)c1cnoc1-c1ccccc1` [Compound 60, (S)—N-(4-amino-3,4-dioxo-1-phenylbutan-2-yl)-5-phenylisoxazole-4-carboxamide]: on rat calpain 1, the “Interaction Distances P1-Gly113” value is given as 4.0 Å, the “Interaction Distances P1-Gly207” value amounted to 3.7 Å, the “Interaction Distances P1-Met260” value was determined as 3.3 Å and the “Interaction Distances P1-Ser206” value turned out to be 4.4 Å. On rat calpain 1, the “Interaction Distances P2-Ala273” value amounted to 4.1 Å, the “Interaction Distances P2-Gly208” value is 3.2 Å, the “Interaction Distances P2-Gly271” value is recorded as 3.2 Å and the “Interaction Distances P2-His272” value was 4.2 Å. Besides, at rat calpain 1, the “Interaction Distances P2-Ser251” value stood at 4.4 Å, the “Interaction Distances P3-Gly207” value was determined as 3.7 Å, the “Interaction Distances P3-Gly208” value is 3.3 Å and the “Interaction Distances P3-Ser209” value stood at 4.4 Å. At rat calpain 1, the “Interaction Distances R^10-Gly271” value is on record as 3.21 Å, the “Interaction Distances R^11-Gly208” value was found to be 2.9 Å, the “Interaction Distances R^12-His272” value came out at 2.9 Å and the “Interaction Distances R^13-Cys115” value was determined as 2.91 Å. Further, the “Interaction Distances R^13-Gln109” value at rat calpain 1 is reported as 2.91 Å.

For `NC(=O)C(=O)[C@H](Cc1ccccc1)NC(=O)c1nsnc1-c1ccccc1` [Compound 72, (S)—N-(4-amino-3,4-dioxo-1-phenylbutan-2-yl)-4-phenyl-1,2,5-thiadiazole-3-carboxamide], on human calpain 9, the “Interaction Distances P1-Gly95” value is listed as 3.9 Å, the “Interaction Distances P1-Gly189” value turned out to be 3.5 Å, the “Interaction Distances P1-Lys188” value came out at 4.0 Å and the “Interaction Distances P1-Ser242” value is recorded as 3.5 Å. For the same compound, at human calpain 9, the “Interaction Distances P2-Ala255” value is listed as 3.6 Å, the “Interaction Distances P2-Gly190” value was 3.0 Å, the “Interaction Distances P2-Gly253” value was 3.2 Å and the “Interaction Distances P2-His254” value is 3.7 Å. At human calpain 9, the “Interaction Distances P2-Phe233” value is 4.1 Å, the “Interaction Distances P3-Gly189” value came out at 3.8 Å, the “Interaction Distances P3-Gly190” value came out at 3.3 Å and the “Interaction Distances P3-Ser191” value stood at 4.2 Å. Besides, at human calpain 9, the “Interaction Distances R^10-Gly253” value was determined as 3.2 Å, the “Interaction Distances R^11-Gly190” value is recorded as 2.9 Å, the “Interaction Distances R^12-His254” value stood at 2.6 Å and the “Interaction Distances R^13-Cys97” value came to 2.9 Å. In addition, the “Interaction Distances R^13-Gln91” value at human calpain 9 was found to be 2.8 Å.

Regarding `NC(=O)C(=O)[C@H](Cc1ccccc1)NC(=O)c1cn(C2CC2)nc1-c1ccccc1` [Compound 250, (S)—N-(4-amino-3,4-dioxo-1-phenylbutan-2-yl)-1-cyclopropyl-3-phenyl-1H-pyrazole-4-carboxamide], at rat calpain 1, the “Interaction Distances P1-Gly113” value came out at 3.8 Å, the “Interaction Distances P1-Gly207” value is given as 3.5 Å, the “Interaction Distances P1-Met260” value came out at 3.5 Å and the “Interaction Distances P1-Ser206” value turned out to be 4.1 Å. At rat calpain 1, the “Interaction Distances P2-Ala273” value is listed as 4.4 Å, the “Interaction Distances P2-Gly208” value is 3.3 Å, the “Interaction Distances P2-Gly271” value turned out to be 3.4 Å and the “Interaction Distances P2-His272” value turned out to be 4.6 Å. Moreover, at rat calpain 1, the “Interaction Distances P2-Ser251” value is listed as 3.7 Å, the “Interaction Distances P3-Gly207” value is reported as 3.6 Å, the “Interaction Distances P3-Gly208” value is on record as 3.5 Å and the “Interaction Distances P3-Ser209” value was found to be 3.8 Å. Also, at rat calpain 1, the “Interaction Distances R^10-Gly271” value stood at 3.28 Å, the “Interaction Distances R^11-Gly208” value came out at 2.98 Å, the “Interaction Distances R^12-His272” value turned out to be 2.81 Å and the “Interaction Distances R^13-Cys115” value is on record as 2.96 Å. Besides, the “Interaction Distances R^13-Gln109” value at rat calpain 1 is 3 Å.

For the compound `CCCC[C@H](NC(=O)c1oc(C)nc1-c1ccccc1)C(=O)C(N)=O` [Compound 265, (S)—N-(1-amino-1,2-dioxoheptan-3-yl)-2-methyl-4-phenyloxazole-5-carboxamide], on human calpain 9, the “Interaction Distances P1-Gly95” value is listed as 3.7 Å, the “Interaction Distances P1-Gly189” value came out at 3.7 Å, the “Interaction Distances P1-Lys188” value was 4.4 Å and the “Interaction Distances P1-Ser242” value is recorded as 4.0 Å. On human calpain 9, the “Interaction Distances P2-Ala255” value was 4.1 Å, the “Interaction Distances P2-Gly190” value is on record as 3.2 Å, the “Interaction Distances P2-Gly253” value is recorded as 2.9 Å and the “Interaction Distances P2-His254” value was 4.2 Å. For the same compound, at human calpain 9, the “Interaction Distances P2-Phe233” value is reported as 3.3 Å, the “Interaction Distances P3-Gly189” value is listed as 3.8 Å, the “Interaction Distances P3-Gly190” value was determined as 3.4 Å and the “Interaction Distances P3-Ser191” value came out at 3.8 Å. Also, on human calpain 9, the “Interaction Distances R^10-Gly253” value came out at 2.9 Å, the “Interaction Distances R^11-Gly190” value was 3.2 Å, the “Interaction Distances R^12-His254” value came out at 2.4 Å and the “Interaction Distances R^13-Cys97” value was determined as 3.1 Å. For the same compound, the “Interaction Distances R^13-Gln91” value on human calpain 9 is given as 2.9 Å.
